Laboratory results from patent publication US9340590B2 (priority 2011, dated 2016).
Positions of bridges follow the written chain, without caps; N, C: chain ends. Residues, ends and D or L forms follow the SMILES beside them.

Key:
Assay in all cases: cell-based
[1] = target: hNav1.7 (Homo sapiens, UniProt Q15858); type: cell-based; conditions: IonWorks Quattro, use-dependent block, hNav1.7; read-out: IWQ Use Nav1.7
[2] = target: hNav1.3 (Homo sapiens, UniProt Q9NY46); conditions: IonWorks Quattro, use-dependent block, hNav1.3; read-out: IWQ Use Nav1.3
[3] = target: hNav1.5 (Homo sapiens, UniProt Q14524); conditions: IonWorks Quattro, use-dependent block, hNav1.5; read-out: IWQ Use Nav1.5
hNav1.5, sequence (Q14524 whole entry, looked up): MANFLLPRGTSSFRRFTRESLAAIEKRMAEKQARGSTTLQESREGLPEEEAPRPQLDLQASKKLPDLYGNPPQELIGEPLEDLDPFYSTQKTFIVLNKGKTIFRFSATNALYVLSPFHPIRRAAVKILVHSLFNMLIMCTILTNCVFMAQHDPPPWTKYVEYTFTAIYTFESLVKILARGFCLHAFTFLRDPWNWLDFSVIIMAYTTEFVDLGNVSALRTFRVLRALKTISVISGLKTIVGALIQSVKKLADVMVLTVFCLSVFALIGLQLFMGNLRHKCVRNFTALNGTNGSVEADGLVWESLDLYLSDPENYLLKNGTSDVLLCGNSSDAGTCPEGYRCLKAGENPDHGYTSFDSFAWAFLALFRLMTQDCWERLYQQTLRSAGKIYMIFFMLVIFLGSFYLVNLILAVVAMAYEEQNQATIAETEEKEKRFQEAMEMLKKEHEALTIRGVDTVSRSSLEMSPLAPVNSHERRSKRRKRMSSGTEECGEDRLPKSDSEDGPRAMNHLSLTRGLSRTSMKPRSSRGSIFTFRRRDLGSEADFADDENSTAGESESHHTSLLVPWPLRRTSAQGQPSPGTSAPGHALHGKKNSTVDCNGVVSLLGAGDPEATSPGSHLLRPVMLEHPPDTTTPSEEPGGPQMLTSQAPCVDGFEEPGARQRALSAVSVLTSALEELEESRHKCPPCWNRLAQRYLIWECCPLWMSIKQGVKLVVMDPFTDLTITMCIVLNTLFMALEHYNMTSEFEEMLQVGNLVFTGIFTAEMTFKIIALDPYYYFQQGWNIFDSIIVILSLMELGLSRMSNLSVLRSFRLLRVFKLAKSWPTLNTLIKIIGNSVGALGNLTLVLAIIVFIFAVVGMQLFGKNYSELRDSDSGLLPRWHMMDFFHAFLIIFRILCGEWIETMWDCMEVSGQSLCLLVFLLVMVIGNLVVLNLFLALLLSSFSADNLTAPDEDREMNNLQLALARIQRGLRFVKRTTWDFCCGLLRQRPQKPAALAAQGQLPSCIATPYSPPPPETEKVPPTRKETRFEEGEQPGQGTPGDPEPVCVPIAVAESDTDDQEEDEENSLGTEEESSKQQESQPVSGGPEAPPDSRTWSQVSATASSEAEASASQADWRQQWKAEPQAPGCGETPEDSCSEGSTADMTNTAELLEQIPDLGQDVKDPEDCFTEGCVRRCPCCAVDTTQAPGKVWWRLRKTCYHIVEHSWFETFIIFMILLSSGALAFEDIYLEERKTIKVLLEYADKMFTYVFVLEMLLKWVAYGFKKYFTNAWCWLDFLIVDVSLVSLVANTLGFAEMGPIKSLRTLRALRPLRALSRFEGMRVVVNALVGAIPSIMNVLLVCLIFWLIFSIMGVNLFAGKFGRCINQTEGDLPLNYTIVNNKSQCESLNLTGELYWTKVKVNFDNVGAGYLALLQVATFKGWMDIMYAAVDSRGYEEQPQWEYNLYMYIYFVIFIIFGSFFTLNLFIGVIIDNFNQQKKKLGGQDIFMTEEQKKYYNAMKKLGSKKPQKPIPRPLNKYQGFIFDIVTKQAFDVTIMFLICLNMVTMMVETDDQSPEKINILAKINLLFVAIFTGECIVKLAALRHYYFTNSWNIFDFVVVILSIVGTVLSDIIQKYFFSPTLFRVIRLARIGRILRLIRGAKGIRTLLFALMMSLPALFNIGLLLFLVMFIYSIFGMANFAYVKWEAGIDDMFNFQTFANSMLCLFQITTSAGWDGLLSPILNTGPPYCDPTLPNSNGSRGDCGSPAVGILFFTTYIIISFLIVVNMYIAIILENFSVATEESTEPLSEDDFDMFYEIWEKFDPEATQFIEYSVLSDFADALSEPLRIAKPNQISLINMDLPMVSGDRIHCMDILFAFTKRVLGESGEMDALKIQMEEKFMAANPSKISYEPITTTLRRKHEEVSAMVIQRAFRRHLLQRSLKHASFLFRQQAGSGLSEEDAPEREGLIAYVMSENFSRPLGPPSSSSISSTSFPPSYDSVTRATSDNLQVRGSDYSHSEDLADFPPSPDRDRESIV

hNav1.3, sequence (Q9NY46 whole entry, looked up): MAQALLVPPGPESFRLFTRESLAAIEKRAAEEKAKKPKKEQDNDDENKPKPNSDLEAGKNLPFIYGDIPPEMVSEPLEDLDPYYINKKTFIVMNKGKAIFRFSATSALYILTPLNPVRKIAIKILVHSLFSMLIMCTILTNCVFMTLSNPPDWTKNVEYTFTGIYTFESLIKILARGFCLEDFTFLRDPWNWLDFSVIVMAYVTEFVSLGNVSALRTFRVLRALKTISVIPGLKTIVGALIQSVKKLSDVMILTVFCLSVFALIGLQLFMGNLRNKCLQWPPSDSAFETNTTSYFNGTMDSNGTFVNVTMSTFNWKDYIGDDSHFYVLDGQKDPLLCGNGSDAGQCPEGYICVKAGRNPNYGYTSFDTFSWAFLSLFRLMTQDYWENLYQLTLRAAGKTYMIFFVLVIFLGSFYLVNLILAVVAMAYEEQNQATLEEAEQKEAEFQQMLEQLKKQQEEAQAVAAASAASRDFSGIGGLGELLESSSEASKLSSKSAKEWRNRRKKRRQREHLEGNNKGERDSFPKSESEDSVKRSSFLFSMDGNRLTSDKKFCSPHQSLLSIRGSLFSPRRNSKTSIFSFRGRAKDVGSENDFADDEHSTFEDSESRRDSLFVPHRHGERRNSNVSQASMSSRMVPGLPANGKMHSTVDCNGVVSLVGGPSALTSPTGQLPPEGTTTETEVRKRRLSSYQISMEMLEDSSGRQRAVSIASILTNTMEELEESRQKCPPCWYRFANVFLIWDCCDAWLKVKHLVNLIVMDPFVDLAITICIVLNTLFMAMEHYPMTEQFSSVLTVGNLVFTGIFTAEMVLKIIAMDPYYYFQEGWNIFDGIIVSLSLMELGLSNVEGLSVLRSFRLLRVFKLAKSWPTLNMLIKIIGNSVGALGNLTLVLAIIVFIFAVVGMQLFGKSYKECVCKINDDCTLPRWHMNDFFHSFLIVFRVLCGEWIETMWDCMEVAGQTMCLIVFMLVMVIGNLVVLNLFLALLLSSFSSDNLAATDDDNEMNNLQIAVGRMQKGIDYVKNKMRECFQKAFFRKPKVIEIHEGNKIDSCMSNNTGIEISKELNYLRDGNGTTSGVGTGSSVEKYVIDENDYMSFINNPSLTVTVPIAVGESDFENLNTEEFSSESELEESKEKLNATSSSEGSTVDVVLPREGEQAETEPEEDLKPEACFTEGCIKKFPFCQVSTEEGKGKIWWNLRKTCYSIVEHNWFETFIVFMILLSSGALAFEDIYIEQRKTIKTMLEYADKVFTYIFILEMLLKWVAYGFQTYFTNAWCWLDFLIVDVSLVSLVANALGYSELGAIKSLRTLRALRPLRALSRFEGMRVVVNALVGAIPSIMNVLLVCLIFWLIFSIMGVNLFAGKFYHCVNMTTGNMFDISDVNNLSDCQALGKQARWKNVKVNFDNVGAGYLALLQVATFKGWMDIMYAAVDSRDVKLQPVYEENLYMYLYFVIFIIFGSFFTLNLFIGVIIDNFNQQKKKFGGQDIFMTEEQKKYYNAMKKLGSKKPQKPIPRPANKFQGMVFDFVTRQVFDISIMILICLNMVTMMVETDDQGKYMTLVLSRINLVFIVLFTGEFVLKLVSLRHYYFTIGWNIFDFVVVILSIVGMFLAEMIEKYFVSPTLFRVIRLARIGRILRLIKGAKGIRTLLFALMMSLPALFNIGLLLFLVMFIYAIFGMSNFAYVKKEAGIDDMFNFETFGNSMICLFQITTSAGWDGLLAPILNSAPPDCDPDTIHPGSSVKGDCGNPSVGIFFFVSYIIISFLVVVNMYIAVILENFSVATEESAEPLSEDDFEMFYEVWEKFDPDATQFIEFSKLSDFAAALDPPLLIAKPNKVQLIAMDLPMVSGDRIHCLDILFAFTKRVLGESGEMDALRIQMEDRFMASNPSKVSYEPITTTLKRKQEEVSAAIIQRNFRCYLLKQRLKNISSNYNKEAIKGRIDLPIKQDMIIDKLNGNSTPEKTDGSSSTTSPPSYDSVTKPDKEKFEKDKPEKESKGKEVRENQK

CC[C@H](C)[C@@H]1NC(=O)[C@@H]2CSSC[C@@H]3NC(=O)[C@H](C(C)C)NC(=O)[C@H](CC(C)C)NC(=O)[C@H](CC(N)=O)NC(=O)[C@@H]4CCCN4C(=O)[C@H](CCCNC(=N)N)NC(=O)[C@H](CSSC[C@H](NC(=O)[C@@H](N)CC(=O)O)C(=O)N[C@@H](CC(C)C)C(=O)NCC(=O)N[C@@H](C)C(=O)N[C@@H](Cc4ccccc4)C(=O)N[C@@H](CCCNC(=N)N)C(=O)N[C@@H](CCCCN)C(=O)N2)NC(=O)[C@H](CSSC[C@@H](C(=O)N[C@@H](CCCCN)C(=O)N[C@@H](Cc2ccc(O)cc2)C(=O)N[C@H](C(=O)N[C@@H](Cc2ccccc2)C(=O)O)C(C)C)NC(=O)[C@H](Cc2c[nH]c4ccccc24)NC(=O)[C@H](CCCNC(=N)N)NC(=O)[C@H](Cc2c[nH]cn2)NC(=O)[C@H]([C@@H](C)O)NC(=O)[C@H](CCCNC(=N)N)NC(=O)[C@H](CO)NC3=O)NC(=O)[C@H](CCCCN)NC(=O)[C@H](CC(=O)O)NC(=O)[C@H](CCC(N)=O)NC(=O)[C@H](CC(=O)O)NC(=O)[C@@H]2CCCN2C1=O [compound 847]
IC50 [1]: > 5 µM | IC50 [2]: 1.7 µM | IC50 [3]: > 5 µM

CC[C@H](C)[C@@H]1NC(=O)[C@@H]2CSSC[C@@H]3NC(=O)[C@H](C(C)C)NC(=O)[C@H](CC(C)C)NC(=O)[C@H](CC(N)=O)NC(=O)[C@@H]4CCCN4C(=O)[C@H](CCCNC(=N)N)NC(=O)[C@H](CSSC[C@H](NC(=O)[C@@H](N)CC(=O)O)C(=O)N[C@@H](CC(C)C)C(=O)NCC(=O)N[C@@H](C)C(=O)N[C@@H](Cc4ccccc4)C(=O)N[C@@H](CCCNC(=N)N)C(=O)N[C@@H](CCCCN)C(=O)N2)NC(=O)[C@H](CSSC[C@@H](C(=O)N[C@@H](CCCCN)C(=O)N[C@@H](Cc2ccc(O)cc2)C(=O)N[C@H](C(=O)N[C@@H](Cc2ccccc2)C(=O)O)C(C)C)NC(=O)[C@H](Cc2c[nH]c4ccccc24)NC(=O)[C@H](CCCNC(=N)N)NC(=O)[C@H](Cc2c[nH]cn2)NC(=O)[C@H]([C@@H](C)O)NC(=O)[C@H](CCCNC(=N)N)NC(=O)[C@H](CO)NC3=O)NC(=O)[C@H](CCCCN)NC(=O)[C@H](CC(=O)O)NC(=O)[C@H](CCCNC(=N)N)NC(=O)[C@H](CC(=O)O)NC(=O)[C@@H]2CCCN2C1=O [compound 848]
IC50 [1]: 4.5 µM | IC50 [2]: 0.6 µM | IC50 [3]: > 5 µM

CC[C@H](C)[C@@H]1NC(=O)[C@@H]2CSSC[C@@H]3NC(=O)[C@H](C(C)C)NC(=O)[C@H](CC(C)C)NC(=O)[C@H](CC(N)=O)NC(=O)[C@@H]4CCCN4C(=O)[C@H](CCCNC(=N)N)NC(=O)[C@H](CSSC[C@H](NC(=O)[C@@H](N)CC(=O)O)C(=O)N[C@@H](CC(C)C)C(=O)NCC(=O)N[C@@H](C)C(=O)N[C@@H](Cc4ccccc4)C(=O)N[C@@H](CCCNC(=N)N)C(=O)N[C@@H](CCCCN)C(=O)N2)NC(=O)[C@H](CSSC[C@@H](C(=O)N[C@@H](CCCCN)C(=O)N[C@@H](Cc2ccc(O)cc2)C(=O)N[C@H](C(=O)N[C@@H](Cc2ccccc2)C(=O)O)C(C)C)NC(=O)[C@H](Cc2c[nH]c4ccccc24)NC(=O)[C@H](CCCNC(=N)N)NC(=O)[C@H](Cc2c[nH]cn2)NC(=O)[C@H]([C@@H](C)O)NC(=O)[C@H](CCCNC(=N)N)NC(=O)[C@H](CO)NC3=O)NC(=O)[C@H](CCCCN)NC(=O)[C@H](CC(=O)O)NC(=O)[C@H](CO)NC(=O)[C@H](CC(=O)O)NC(=O)[C@@H]2CCCN2C1=O [compound 849]
IC50 [1]: > 5 µM | IC50 [2]: 1.1 µM | IC50 [3]: > 5 µM

CC[C@H](C)[C@@H]1NC(=O)[C@@H]2CSSC[C@@H]3NC(=O)[C@H](C(C)C)NC(=O)[C@H](CC(C)C)NC(=O)[C@H](CC(N)=O)NC(=O)[C@@H]4CCCN4C(=O)[C@H](CCCNC(=N)N)NC(=O)[C@H](CSSC[C@H](NC(=O)[C@@H](N)CC(=O)O)C(=O)N[C@@H](CC(C)C)C(=O)NCC(=O)N[C@@H](C)C(=O)N[C@@H](Cc4ccccc4)C(=O)N[C@@H](CCCNC(=N)N)C(=O)N[C@@H](CCCCN)C(=O)N2)NC(=O)[C@H](CSSC[C@@H](C(=O)N[C@@H](CCCCN)C(=O)N[C@@H](Cc2ccc(O)cc2)C(=O)N[C@H](C(=O)N[C@@H](Cc2ccccc2)C(=O)O)C(C)C)NC(=O)[C@H](Cc2c[nH]c4ccccc24)NC(=O)[C@H](CCCNC(=N)N)NC(=O)[C@H](Cc2c[nH]cn2)NC(=O)[C@H]([C@@H](C)O)NC(=O)[C@H](CCCNC(=N)N)NC(=O)[C@H](CO)NC3=O)NC(=O)[C@H](CCCCN)NC(=O)[C@H](CC(=O)O)NC(=O)[C@H]([C@@H](C)O)NC(=O)[C@H](CC(=O)O)NC(=O)[C@@H]2CCCN2C1=O [compound 850]
IC50 [1]: > 5 µM | IC50 [2]: 1.3 µM | IC50 [3]: > 5 µM

CC[C@H](C)[C@@H]1NC(=O)[C@@H]2CSSC[C@@H]3NC(=O)[C@H](C(C)C)NC(=O)[C@H](CC(C)C)NC(=O)[C@H](CC(N)=O)NC(=O)[C@@H]4CCCN4C(=O)[C@H](CCCNC(=N)N)NC(=O)[C@H](CSSC[C@H](NC(=O)[C@@H](N)CC(=O)O)C(=O)N[C@@H](CC(C)C)C(=O)NCC(=O)N[C@@H](C)C(=O)N[C@@H](Cc4ccccc4)C(=O)N[C@@H](CCCNC(=N)N)C(=O)N[C@@H](CCCCN)C(=O)N2)NC(=O)[C@H](CSSC[C@@H](C(=O)N[C@@H](CCCCN)C(=O)N[C@@H](Cc2ccc(O)cc2)C(=O)N[C@H](C(=O)N[C@@H](Cc2ccccc2)C(=O)O)C(C)C)NC(=O)[C@H](Cc2c[nH]c4ccccc24)NC(=O)[C@H](CCCNC(=N)N)NC(=O)[C@H](Cc2c[nH]cn2)NC(=O)[C@H]([C@@H](C)O)NC(=O)[C@H](CCCNC(=N)N)NC(=O)[C@H](CO)NC3=O)NC(=O)[C@H](CCCCN)NC(=O)[C@H](CC(=O)O)NC(=O)[C@H](C(C)C)NC(=O)[C@H](CC(=O)O)NC(=O)[C@@H]2CCCN2C1=O [compound 851]
IC50 [1]: > 5 µM | IC50 [2]: 1.7 µM | IC50 [3]: > 5 µM

CC[C@H](C)[C@@H]1NC(=O)[C@@H]2CSSC[C@@H]3NC(=O)[C@H](C(C)C)NC(=O)[C@H](CC(C)C)NC(=O)[C@H](CC(N)=O)NC(=O)[C@@H]4CCCN4C(=O)[C@H](CCCNC(=N)N)NC(=O)[C@H](CSSC[C@H](NC(=O)[C@@H](N)CC(=O)O)C(=O)N[C@@H](CC(C)C)C(=O)NCC(=O)N[C@@H](C)C(=O)N[C@@H](Cc4ccccc4)C(=O)N[C@@H](CCCNC(=N)N)C(=O)N[C@@H](CCCCN)C(=O)N2)NC(=O)[C@H](CSSC[C@@H](C(=O)N[C@@H](CCCCN)C(=O)N[C@@H](Cc2ccc(O)cc2)C(=O)N[C@H](C(=O)N[C@@H](Cc2ccccc2)C(=O)O)C(C)C)NC(=O)[C@H](Cc2c[nH]c4ccccc24)NC(=O)[C@H](CCCNC(=N)N)NC(=O)[C@H](Cc2c[nH]cn2)NC(=O)[C@H]([C@@H](C)O)NC(=O)[C@H](CCCNC(=N)N)NC(=O)[C@H](CO)NC3=O)NC(=O)[C@H](CCCCN)NC(=O)[C@H](CC(=O)O)NC(=O)[C@H](Cc2c[nH]c3ccccc23)NC(=O)[C@H](CC(=O)O)NC(=O)[C@@H]2CCCN2C1=O [compound 852]
IC50 [1]: > 5 µM | IC50 [2]: > 5 µM | IC50 [3]: > 5 µM

CC[C@H](C)[C@@H]1NC(=O)[C@@H]2CSSC[C@@H]3NC(=O)[C@H](C(C)C)NC(=O)[C@H](CC(C)C)NC(=O)[C@H](CC(N)=O)NC(=O)[C@@H]4CCCN4C(=O)[C@H](CCCNC(=N)N)NC(=O)[C@H](CSSC[C@H](NC(=O)[C@@H](N)CC(=O)O)C(=O)N[C@@H](CC(C)C)C(=O)NCC(=O)N[C@@H](C)C(=O)N[C@@H](CC(C)C)C(=O)N[C@@H](CCCNC(=N)N)C(=O)N[C@@H](CCCCN)C(=O)N2)NC(=O)[C@H](CSSC[C@@H](C(=O)N[C@@H](CCCCN)C(=O)N[C@@H](Cc2ccc(O)cc2)C(=O)N[C@H](C(=O)N[C@@H](Cc2ccccc2)C(=O)O)C(C)C)NC(=O)[C@H](Cc2c[nH]c4ccccc24)NC(=O)[C@H](CCCNC(=N)N)NC(=O)[C@H](Cc2c[nH]cn2)NC(=O)[C@H]([C@@H](C)O)NC(=O)[C@H](CCCNC(=N)N)NC(=O)[C@H](CO)NC3=O)NC(=O)[C@H](CCCCN)NC(=O)[C@H](CC(=O)O)NC(=O)[C@H](CC(N)=O)NC(=O)[C@H](CC(=O)O)NC(=O)[C@@H]2CCCN2C1=O [compound 853] (H-DCLGALRKCIPDNDKCCRPNLVCSRTHRWCKYVF-OH; disulfide 2-17, 9-23, 16-30)
IC50 [1]: > 5 µM | IC50 [2]: > 5 µM | IC50 [3]: > 5 µM

CC[C@H](C)[C@@H]1NC(=O)[C@@H]2CSSC[C@@H]3NC(=O)[C@H](C(C)C)NC(=O)[C@H](CC(C)C)NC(=O)[C@H](CC(N)=O)NC(=O)[C@@H]4CCCN4C(=O)[C@H](CCCNC(=N)N)NC(=O)[C@H](CSSC[C@H](NC(=O)[C@@H](N)CC(=O)O)C(=O)N[C@@H](CC(C)C)C(=O)NCC(=O)N[C@@H](C)C(=O)N[C@@H](CC(C)C)C(=O)N[C@@H](CCCNC(=N)N)C(=O)N[C@@H](CCCCN)C(=O)N2)NC(=O)[C@H](CSSC[C@@H](C(=O)N[C@@H](CCCCN)C(=O)N[C@@H](Cc2ccc(O)cc2)C(=O)N[C@H](C(=O)N[C@@H](Cc2ccccc2)C(=O)O)C(C)C)NC(=O)[C@H](Cc2c[nH]c4ccccc24)NC(=O)[C@H](CC(=O)O)NC(=O)[C@H](Cc2c[nH]cn2)NC(=O)[C@H]([C@@H](C)O)NC(=O)[C@H](CCCNC(=N)N)NC(=O)[C@H](CO)NC3=O)NC(=O)[C@H](CCCCN)NC(=O)[C@H](CC(=O)O)NC(=O)[C@H](CC(N)=O)NC(=O)[C@H](CC(=O)O)NC(=O)[C@@H]2CCCN2C1=O [compound 854] (H-DCLGALRKCIPDNDKCCRPNLVCSRTHDWCKYVF-OH; disulfide 2-17, 9-23, 16-30)
IC50 [1]: > 5 µM | IC50 [2]: > 5 µM | IC50 [3]: > 5 µM
